Assay results: patent publication US20260015315A1, “AMINO LIPID COMPOUND, PREPARATION METHOD THEREFOR, COMPOSITION THEREOF AND APPLICATION THEREOF” (SHENZHEN SHENXIN BIOTECHNOLOGY CO., LTD., priority 2022, published 2026)

Tested on: BALB/c mice
Assay: In vivo delivery of lipid nanoparticle encapsulating luciferase mRNA (Fluc mRNA), IVIS imaging
Conditions: for Total flux (fluorescence expression intensity): Fluc mRNA-LNP (amino lipid:DSPC:CHO-HP:PEG2000-DMG 48:10:40.5:1.5), whole body; for Total flux (fluorescence expression intensity) / Spleen (fluorescence expression intensity) / Liver (fluorescence expression intensity): 75 μL tail vein IV, female BALB/c mice, IVIS 6 hours after injection; for Spleen (fluorescence expression intensity) / (Spleen/Total Flux) * 100% / Multiple of spleen delivery/total delivery (Spleen/Total Flux) to Compound 118 / Liver (fluorescence expression intensity): Fluc mRNA-LNP; for (Spleen/Total Flux) * 100% / Multiple of spleen delivery/total delivery (Spleen/Total Flux) to Compound 118: tail vein IV, BALB/c mice, 6 hours; for Multiple of spleen delivery/total delivery (Spleen/Total Flux) to Compound 118: relative to Compound 118
Protocol: The amino lipid compound of the present disclosure, a helper lipid, a structural lipid, and a PEG-lipid were separately dissolved in absolute ethanol to prepare respective solutions at concentrations of 20 mg/mL, 10 mg/mL, 20 mg/mL, and 25 mg/mL, respectively. The above four solutions were pipetted at a molar ratio of the amino lipid compound: DSPC:CHO-HP:PEG2000-DMG of 48:10:40.5:1.5, and mixed well to prepare an alcohol phase.
(2) Encapsulation: The water phase and the alcohol phase were injected into a microfluidic chip at a flow rate of water phase:alcohol phase=12 mL/min: 4 mL/min by using a microfluidic preparation instrument (MPE-L2), and encapsulation was carried out at a flow rate of water phase:alcohol phase=9 mL/min: 3 mL/min to obtain mRNA-encapsulating lipid nanoparticle (mRNA-LNP).
(3) Dialysis: The product of step (2) was loaded in a dialysis bag and placed in a Tris Buffer-8% sucrose solution for replacement to remove ingredients such as residual ethanol, unassembled lipids. Dialysis was conducted for 2 h with magnetic stirring at room temperature and under protection from light (dialysate was replaced every 1 hour).
(4) The product of step (3) was sterilized by passing through a 0.22 μm microporous membrane, and then packaged.
Lipid nanoparticle formulations encapsulating Flue mRNA were prepared, with a concentration of Flue mRNA of 0.2 μg/μL, a mass ratio of Flue mRNA to Lipid of 1:10, a particle size of 80-130 nm, and a encapsulation efficiency of 80% or higher.
• Animal preparation: Female BALB/c mice of 6-8 weeks old were selected and raised in an SPF grade breeding room. Animal testing was conducted in strict accordance with the guidelines of national health institutions and animal ethics requirements.
In vivo Delivery: prior to injection of the test LNP formulations, the LNP formulations were gently and repeatedly inverted to thoroughly mix the formulation samples. A corresponding amount of the formulation samples were aspirated with a 1 ml insulin syringe, and the LNP formulations were injected by tail vein injection (IV), with 3 mice in duplicate per formulation. Each mouse was injected with 75 μL of the luciferase mRNA (Flue mRNA)-encapsulating lipid nanoparticle formulation prepared in Experimental Example 1.
6 hours after injection of LNP formulations, mice were injected with 200 μL D-Luciferin luciferase developing substrate (Catalog No. 122799; Manufacturer: Perkin Elmer). After the substrate was injected, the mice were anesthetized by injection of 200 μl of 2.5% avertin, and the injection time of luciferase developing substrate was recorded.
The fluorescence expression intensity induced by the lipid nanoparticle encapsulating luciferase mRNA (Flue mRNA) with a representative amino lipid compound is shown in Table 4, with the amino lipid compound 118 as a control.

Structure (SMILES): CCCCCCC(CCCCCC)OC(=O)CCCCCCCCC(CCCCCCCCC(=O)OC(CCCCCC)CCCCCC)N(CCCN(C)C)C(=O)COCCCC [compound 119]
- Total flux (fluorescence expression intensity): 2.65E+07
- Spleen (fluorescence expression intensity): 6.80E+06
- (Spleen/Total Flux) * 100%: 25.66%
- Multiple of spleen delivery/total delivery (Spleen/Total Flux) to Compound 118: 22.51

Structure (SMILES): CCCCCCC(CCCCCC)OC(=O)CCCCCCCCC(CCCCCCCCC(=O)OC(CCCCCC)CCCCCC)N(CCCN(C)C)C(=O)COCCCCC [compound 120]
- Total flux (fluorescence expression intensity): 3.48E+07
- Spleen (fluorescence expression intensity): 6.46E+06
- (Spleen/Total Flux) * 100%: 18.56%
- Multiple of spleen delivery/total delivery (Spleen/Total Flux) to Compound 118: 16.28

Structure (SMILES): CCCCCCOCC(=O)N(CCCN(C)C)C(CCCCCCCCC(=O)OC(CCCCCC)CCCCCC)CCCCCCCCC(=O)OC(CCCCCC)CCCCCC [compound 121]
- Total flux (fluorescence expression intensity): 3.07E+07
- Spleen (fluorescence expression intensity): 7.14E+06
- (Spleen/Total Flux) * 100%: 23.26%
- Multiple of spleen delivery/total delivery (Spleen/Total Flux) to Compound 118: 20.40

Structure (SMILES): CCCCCCCOCC(=O)N(CCCN(C)C)C(CCCCCCCCC(=O)OC(CCCCCC)CCCCCC)CCCCCCCCC(=O)OC(CCCCCC)CCCCCC [compound 122]
- Total flux (fluorescence expression intensity): 3.56E+07
- Spleen (fluorescence expression intensity): 3.02E+06
- (Spleen/Total Flux) * 100%: 8.48%
- Multiple of spleen delivery/total delivery (Spleen/Total Flux) to Compound 118: 7.44

Structure (SMILES): CCCCCCCCOCC(=O)N(CCCN(C)C)C(CCCCCCCCC(=O)OC(CCCCCC)CCCCCC)CCCCCCCCC(=O)OC(CCCCCC)CCCCCC [compound 123]
- Total flux (fluorescence expression intensity): 5.95E+07
- Spleen (fluorescence expression intensity): 4.02E+06
- (Spleen/Total Flux) * 100%: 6.76%
- Multiple of spleen delivery/total delivery (Spleen/Total Flux) to Compound 118: 5.93

Structure (SMILES): CCCCCCC(CCCCCC)OC(=O)CCCCCCCCC(CCCCCCCCC(=O)OC(CCCCCC)CCCCCC)N(CCCN(C)C)C(=O)CCOCCCC [compound 124]
- Total flux (fluorescence expression intensity): 3.45E+07
- Spleen (fluorescence expression intensity): 6.18E+06
- (Spleen/Total Flux) * 100%: 17.91%
- Multiple of spleen delivery/total delivery (Spleen/Total Flux) to Compound 118: 15.71

Structure (SMILES): CCCCCCC(CCCCCC)OC(=O)CCCCCCCCC(CCCCCCCCC(=O)OC(CCCCCC)CCCCCC)N(CCCN(C)C)C(=O)CCOCCCCC [compound 125]
- Total flux (fluorescence expression intensity): 5.40E+07
- Spleen (fluorescence expression intensity): 2.72E+06
- (Spleen/Total Flux) * 100%: 5.04%
- Multiple of spleen delivery/total delivery (Spleen/Total Flux) to Compound 118: 4.42

Structure (SMILES): CCCCCCOCCC(=O)N(CCCN(C)C)C(CCCCCCCCC(=O)OC(CCCCCC)CCCCCC)CCCCCCCCC(=O)OC(CCCCCC)CCCCCC [compound 126]
- Total flux (fluorescence expression intensity): 5.39E+07
- Spleen (fluorescence expression intensity): 6.87E+06
- (Spleen/Total Flux) * 100%: 12.75%
- Multiple of spleen delivery/total delivery (Spleen/Total Flux) to Compound 118: 11.18

Structure (SMILES): CCCCCCCOCCC(=O)N(CCCN(C)C)C(CCCCCCCCC(=O)OC(CCCCCC)CCCCCC)CCCCCCCCC(=O)OC(CCCCCC)CCCCCC [compound 127]
- Total flux (fluorescence expression intensity): 3.56E+07
- Spleen (fluorescence expression intensity): 4.60E+06
- (Spleen/Total Flux) * 100%: 12.92%
- Multiple of spleen delivery/total delivery (Spleen/Total Flux) to Compound 118: 11.33

Structure (SMILES): CCCCCCCCOCCC(=O)N(CCCN(C)C)C(CCCCCCCCC(=O)OC(CCCCCC)CCCCCC)CCCCCCCCC(=O)OC(CCCCCC)CCCCCC [compound 128]
- Total flux (fluorescence expression intensity): 5.62E+07
- Spleen (fluorescence expression intensity): 3.01E+06
- (Spleen/Total Flux) * 100%: 5.36%
- Multiple of spleen delivery/total delivery (Spleen/Total Flux) to Compound 118: 4.70

Structure (SMILES): CCCCCCC(CCCCCC)OC(=O)CCCCCCCCC(CCCCCCCCC(=O)OC(CCCCCC)CCCCCC)N(CCCN(C)C)C(=O)CCCOCCCC [compound 129]
- Total flux (fluorescence expression intensity): 3.53E+07
- Spleen (fluorescence expression intensity): 1.33E+07
- (Spleen/Total Flux) * 100%: 37.68%
- Multiple of spleen delivery/total delivery (Spleen/Total Flux) to Compound 118: 33.05

Structure (SMILES): CCCCCCCOCCCC(=O)N(CCCN(C)C)C(CCCCCCCCC(=O)OC(CCCCCC)CCCCCC)CCCCCCCCC(=O)OC(CCCCCC)CCCCCC [compound 132]
- Total flux (fluorescence expression intensity): 2.70E+07
- Spleen (fluorescence expression intensity): 6.10E+06
- (Spleen/Total Flux) * 100%: 22.59%
- Multiple of spleen delivery/total delivery (Spleen/Total Flux) to Compound 118: 19.82

Structure (SMILES): CCCCCCC(CCCCCC)OC(=O)CCCCCCCCC(CCCCCCCCC(=O)OC(CCCCCC)CCCCCC)N(CCN(C)C)C(=O)COCCCCC [compound 145]
- Total flux (fluorescence expression intensity): 1.21E+07
- Spleen (fluorescence expression intensity): 1.04E+05
- (Spleen/Total Flux) * 100%: 0.86%
- Multiple of spleen delivery/total delivery (Spleen/Total Flux) to Compound 118: 0.75

Structure (SMILES): CCCCCCOCC(=O)N(CCN(C)C)C(CCCCCCCCC(=O)OC(CCCCCC)CCCCCC)CCCCCCCCC(=O)OC(CCCCCC)CCCCCC [compound 146]
- Total flux (fluorescence expression intensity): 1.37E+07
- Spleen (fluorescence expression intensity): 6.65E+04
- (Spleen/Total Flux) * 100%: 0.49%
- Multiple of spleen delivery/total delivery (Spleen/Total Flux) to Compound 118: 0.43

Structure (SMILES): CCCCCCCOCC(=O)N(CCN(C)C)C(CCCCCCCCC(=O)OC(CCCCCC)CCCCCC)CCCCCCCCC(=O)OC(CCCCCC)CCCCCC [compound 147]
- Total flux (fluorescence expression intensity): 4.97E+06
- Spleen (fluorescence expression intensity): 1.13E+05
- (Spleen/Total Flux) * 100%: 2.27%
- Multiple of spleen delivery/total delivery (Spleen/Total Flux) to Compound 118: 1.99

Structure (SMILES): CCCCCCCCOCC(=O)N(CCN(C)C)C(CCCCCCCCC(=O)OC(CCCCCC)CCCCCC)CCCCCCCCC(=O)OC(CCCCCC)CCCCCC [compound 148]
- Total flux (fluorescence expression intensity): 4.45E+06
- Spleen (fluorescence expression intensity): 1.07E+05
- (Spleen/Total Flux) * 100%: 2.40%
- Multiple of spleen delivery/total delivery (Spleen/Total Flux) to Compound 118: 2.11

Structure (SMILES): CCCCCCC(CCCCCC)OC(=O)CCCCCCCCC(CCCCCCCCC(=O)OC(CCCCCC)CCCCCC)N(CCN(C)C)C(=O)CCOCCCC [compound 149]
- Total flux (fluorescence expression intensity): 5.80E+06
- Spleen (fluorescence expression intensity): 1.29E+05
- (Spleen/Total Flux) * 100%: 2.22%
- Multiple of spleen delivery/total delivery (Spleen/Total Flux) to Compound 118: 1.95

Structure (SMILES): CCCCCCC(CCCCCC)OC(=O)CCCCCCCCC(CCCCCCCCC(=O)OC(CCCCCC)CCCCCC)N(CCN(C)C)C(=O)CCOCCCCC [compound 150]
- Total flux (fluorescence expression intensity): 2.06E+07
- Liver (fluorescence expression intensity): 5.51E+06
- Spleen (fluorescence expression intensity): 2.27E+05
- (Spleen/Total Flux) * 100%: 1.10%
- Multiple of spleen delivery/total delivery (Spleen/Total Flux) to Compound 118: 0.97

Structure (SMILES): CCCCCCOCCC(=O)N(CCN(C)C)C(CCCCCCCCC(=O)OC(CCCCCC)CCCCCC)CCCCCCCCC(=O)OC(CCCCCC)CCCCCC [compound 151]
- Total flux (fluorescence expression intensity): 2.29E+07
- Liver (fluorescence expression intensity): 8.91E+06
- Spleen (fluorescence expression intensity): 1.30E+05
- (Spleen/Total Flux) * 100%: 0.57%
- Multiple of spleen delivery/total delivery (Spleen/Total Flux) to Compound 118: 0.50

Structure (SMILES): CCCCCCOCCCC(=O)N(CCN(C)C)C(CCCCCCCCC(=O)OC(CCCCCC)CCCCCC)CCCCCCCCC(=O)OC(CCCCCC)CCCCCC [compound 156]
- Total flux (fluorescence expression intensity): 3.07E+07
- Liver (fluorescence expression intensity): 9.75E+06
- Spleen (fluorescence expression intensity): 2.34E+05
- (Spleen/Total Flux) * 100%: 0.76%
- Multiple of spleen delivery/total delivery (Spleen/Total Flux) to Compound 118: 0.67

Structure (SMILES): CCCCCCCOCCCC(=O)N(CCN(C)C)C(CCCCCCCCC(=O)OC(CCCCCC)CCCCCC)CCCCCCCCC(=O)OC(CCCCCC)CCCCCC [compound 157]
- Total flux (fluorescence expression intensity): 2.80E+07
- Liver (fluorescence expression intensity): 1.07E+07
- Spleen (fluorescence expression intensity): 2.26E+05
- (Spleen/Total Flux) * 100%: 0.81%
- Multiple of spleen delivery/total delivery (Spleen/Total Flux) to Compound 118: 0.71

Structure (SMILES): CCCCCCC(CCCCCC)OC(=O)CCCCCCCCC(CCCCCCCCC(=O)OC(CCCCCC)CCCCCC)N(CCCCN(C)C)C(=O)COCCCC [compound 166]
- Total flux (fluorescence expression intensity): 1.25E+07
- Liver (fluorescence expression intensity): 7.74E+06
- Spleen (fluorescence expression intensity): 8.07E+06
- (Spleen/Total Flux) * 100%: 64.56%
- Multiple of spleen delivery/total delivery (Spleen/Total Flux) to Compound 118: 56.63
